Results as given in patent publication US20100267561A1, “HERBICIDAL PYRIDAZINONE DERIVATIVES” (priority 2007, published 2010).

Experiments:
Assay in all cases: Test B pre-/postemergence plant response
Format in all cases: in vivo
[1] = system: common (oilseed) sunflower (Helianthus annuus); settings: Preemergence
Summary of the method: (§1)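 Preemergence and postemergence (plants 2-18 cm, 1- to 4-leaf stage) applications used test chemicals in a non-phytotoxic solvent with surfactant. Plants were held in a greenhouse 13 to 15 days, then rated visually against controls on a 0-100 scale (0 no effect, 100 complete control).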

[2] = system: downy bromegrass (Bromus tectorum); settings: for Bromegrass, Downy plant response rating: 8 g ai/ha
Summary of the method: as §1

[3] = system: corn (Zea mays)
Summary of the method: as §1

[4] = system: velvetleaf (Abutilon theophrasti)
Summary of the method: as §1

[5] = system: common ragweed (Ambrosia elation)
Summary of the method: as §1

[6] = system: yellow nutsedge (Cyperus esculentus)
Summary of the method: as §1

[7] = system: pigweed (Amaranthus retroflexus)
Summary of the method: as §1

[8] = system: catchweed bedstraw (Galium aparine); settings: Preemergence, scale 0 to 100
Summary of the method: as §1

[9] = system: giant foxtail (Setaria faberii)
Summary of the method: as §1

[10] = system: lambsquarters (Chenopodium album)
Summary of the method: as §1

[11] = system: woolly cupgrass (Eriochloa villosa)
Summary of the method: as §1

[12] = system: wild oat (Avena fatua)
Summary of the method: as §1

[13] = system: kochia (Kochia scoparia)
Summary of the method: as §1

[14] = system: blackgrass (Alopecurus myosuroides); settings: for Blackgrass plant response rating: 8 g ai/ha
Summary of the method: as §1

[15] = Postemergence, 16 g ai/ha, scale 0 to 100
[16] = Postemergence, 31 g ai/ha, scale 0 to 100
[17] = Postemergence, 62 g ai/ha, scale 0 to 100, 0 no effect, 100 complete control
[18] = Preemergence, 16 g ai/ha, scale 0 to 100 (0 no effect, 100 complete control)
[19] = Preemergence, 31 g ai/ha, 0 to 100 scale, 0 no effect, 100 complete control
[20] = Preemergence, 62 g ai/ha, scale 0 to 100
[21] = 8 g ai/ha, postemergence, 0-100 scale
[22] = Preemergence, 8 g ai/ha, scale 0 to 100
[23] = Preemergence, 16 g ai/ha, scale 0 to 100
[24] = Preemergence, 31 g ai/ha, scale 0 to 100 (0 no effect, 100 complete control)

Compound: Cc1cc(-c2ccc(Cl)cc2)nn1-c1c(OC(=O)c2cccs2)cnn(C)c1=O [Compound 52]
- Plant response rating, Sunflower ([1]; 31 g ai/ha, scale 0 to 100 (0 no effect, 100 complete control)): 0
- Plant response rating, Sunflower ([1]; 62 g ai/ha, scale 0 to 100): 0
- Sunflower plant response rating ([1]; 8 g ai/ha, scale 0 to 100): 0
- Sunflower plant response rating ([1]; 16 g ai/ha, scale 0 to 100): 0
- Bromegrass, Downy plant response rating ([2]; postemergence, 0-100 scale): 30
- Plant response rating, Bromegrass, Downy [2, 15]: 30
- Plant response rating, Bromegrass, Downy [2, 16]: 40
- Plant response rating, Bromegrass, Downy [2, 17]: 70
- Plant response rating, Bromegrass, Downy [2, 18]: 35
- Plant response rating, Bromegrass, Downy [2, 19]: 35
- Plant response rating, Bromegrass, Downy [2, 20]: 80
- Bromegrass, Downy plant response rating ([2]; Preemergence, scale 0 to 100): 0
- Corn plant response rating [3, 21]: 85
- Plant response rating, Corn [3, 15]: 98
- Plant response rating, Corn [3, 16]: 98
- Plant response rating, Corn [3, 17]: 98
- Plant response rating, Corn [3, 19]: 70
- Plant response rating, Corn [3, 20]: 75
- Corn plant response rating [3, 22]: 0
- Corn plant response rating [3, 23]: 55
- Velvetleaf plant response rating [4, 21]: 0
- Plant response rating, Velvetleaf [4, 15]: 0
- Plant response rating, Velvetleaf [4, 16]: 0
- Plant response rating, Velvetleaf [4, 17]: 0
- Plant response rating, Velvetleaf [4, 24]: 0
- Plant response rating, Velvetleaf ([4]; Preemergence, 62 g ai/ha, 0 to 100 scale, 0 no effect, 100 complete control): 0
- Velvetleaf plant response rating [4, 22]: 0
- Velvetleaf plant response rating [4, 23]: 0
- Ragweed plant response rating [5, 21]: 0
- Plant response rating, Ragweed [5, 15]: 0
- Plant response rating, Ragweed [5, 16]: 0
- Plant response rating, Ragweed [5, 17]: 0
- Plant response rating, Ragweed [5, 24]: 0
- Plant response rating, Ragweed [5, 20]: 0
- Ragweed plant response rating [5, 22]: 0
- Ragweed plant response rating [5, 23]: 0
- Nutsedge, Yellow plant response rating [6, 21]: 0
- Plant response rating, Nutsedge, Yellow [6, 15]: 0
- Plant response rating, Nutsedge, Yellow [6, 16]: 0
- Plant response rating, Nutsedge, Yellow [6, 17]: 0
- Plant response rating, Nutsedge, Yellow [6, 24]: 0
- Plant response rating, Nutsedge, Yellow [6, 20]: 0
- Nutsedge, Yellow plant response rating [6, 22]: 0
- Nutsedge, Yellow plant response rating [6, 23]: 0
- Pigweed plant response rating [7, 21]: 0
- Plant response rating, Pigweed [7, 15]: 0
- Plant response rating, Pigweed [7, 16]: 0
- Plant response rating, Pigweed [7, 17]: 0
- Plant response rating, Pigweed [7, 24]: 0
- Plant response rating, Pigweed [7, 20]: 0
- Pigweed plant response rating [7, 22]: 0
- Pigweed plant response rating [7, 23]: 0
- Plant response rating, Galium ([8]; 62 g ai/ha): 0
- Galium plant response rating ([8]; 8 g ai/ha): 0
- Galium plant response rating ([8]; 16 g ai/ha): 0
- Foxtail, Giant plant response rating [9, 21]: 85
- Plant response rating, Foxtail, Giant [9, 15]: 98
- Plant response rating, Foxtail, Giant [9, 16]: 100
- Plant response rating, Foxtail, Giant [9, 17]: 100
- Plant response rating, Foxtail, Giant [9, 19]: 0
- Plant response rating, Foxtail, Giant [9, 20]: 98
- Foxtail, Giant plant response rating [9, 22]: 0
- Foxtail, Giant plant response rating [9, 23]: 0
- Lambsquarters plant response rating [10, 21]: 0
- Plant response rating, Lambsquarters [10, 15]: 0
- Plant response rating, Lambsquarters [10, 16]: 0
- Plant response rating, Lambsquarters [10, 17]: 0
- Plant response rating, Lambsquarters [10, 19]: 0
- Plant response rating, Lambsquarters [10, 20]: 0
- Lambsquarters plant response rating [10, 22]: 0
- Lambsquarters plant response rating [10, 23]: 0
- Cupgrass, Woolly plant response rating [11, 21]: 75
- Plant response rating, Cupgrass, Woolly [11, 15]: 90
- Plant response rating, Cupgrass, Woolly [11, 16]: 95
- Plant response rating, Cupgrass, Woolly [11, 17]: 100
- Plant response rating, Cupgrass, Woolly [11, 19]: 0
- Plant response rating, Cupgrass, Woolly [11, 20]: 0
- Cupgrass, Woolly plant response rating [11, 22]: 0
- Cupgrass, Woolly plant response rating [11, 23]: 0
- Oat, Wild plant response rating [12, 21]: 50
- Plant response rating, Oat, Wild [12, 15]: 90
- Plant response rating, Oat, Wild [12, 16]: 95
- Plant response rating, Oat, Wild [12, 17]: 100
- Plant response rating, Oat, Wild [12, 24]: 70
- Plant response rating, Oat, Wild [12, 20]: 90
- Oat, Wild plant response rating [12, 22]: 0
- Oat, Wild plant response rating [12, 23]: 30
- Kochia plant response rating [13, 21]: 0
- Plant response rating, Kochia [13, 15]: 0
- Plant response rating, Kochia [13, 16]: 0
- Plant response rating, Kochia [13, 17]: 0
- Plant response rating, Kochia [13, 20]: 85
- Kochia plant response rating [13, 22]: 0
- Kochia plant response rating [13, 23]: 0
- Blackgrass plant response rating ([14]; postemergence, 0-100 scale): 50
- Plant response rating, Blackgrass [14, 15]: 70
- Plant response rating, Blackgrass [14, 16]: 95
- Plant response rating, Blackgrass [14, 17]: 95
- Plant response rating, Blackgrass [14, 18]: 95
- Plant response rating, Blackgrass [14, 19]: 100
- Plant response rating, Blackgrass [14, 20]: 100
- Blackgrass plant response rating ([14]; Preemergence, scale 0 to 100): 0
